# Laboratory results published in patent US10676504B2 (Colorado State University Research Foundation, priority 2015, dated 2020).
# Like-named read-outs stand apart in the source and are kept apart here.
# What was measured:
# [1] = the molecule shown is the open-chain precursor, amide bond, 16-membered ring, 3 steps
# human HDACs = test: HDAC biochemical assay (Example 16), summary statements over isoforms; settings: all isoforms tested
# Experimental: The inhibitory effect of compounds on deacetylase isoenzyme function was determined in vitro using an optimized homogenous assay performed in 384-well plate format. […] Data are analyzed on a plate-by-plate basis for the linear range of fluorescence over time. Data from the plate capture corresponding to the mid-linear range is imported into analytical software and annotated with well identity and compound concentration (Spotfire DecisionSite). Replicate experimental data from incubations with inhibitor are normalized to control, solvent-only wells and IC-50 is determined by logistic regression.
# Thus, small-molecule inhibitors were arrayed at twelve-point dose-response (3-fold increments) in 384-well library plates and transferred by robotic pin device to replicate assay plates containing assay buffer under reducing conditions (TCEP 200 μM). A liquid handling device then transferred a tripeptide substrate terminating in acetyl-lysine and amide conjugated to 4-methyl-7-aminocoumarin (AMC), recombinant human histone deacetylase (BPS Bioscience, San Diego, Calif.), and recombinant human trypsin (Sigma-Aldrich, St. Louis, Mo.). […] Kinetic (fluorescence per unit time) and end-point (total fluorescence) data were captured by a multilabel plate reader. Replicate data were analyzed by curve-fit using logistic regression (Spotfire Decision-Site). […]
# HDACs 1-3 = test: HDAC biochemical assay of P5-P12, summary statements
# HDAC2 = HDAC2 (Homo sapiens, UniProt Q92769); test: HDAC biochemical assay of P5-P12 (Table P1); set-up: The recombinant, full-length HDAC protein (BPS Biosciences) was incubated; purchased BPS Biosciences; settings: Table P1
# HDAC6 = target: T1, HDAC6 (Homo sapiens, UniProt Q9UBN7); test: HDAC biochemical assay of P5-P12 (Table P1); set-up: The recombinant, full-length HDAC protein (BPS Biosciences) was incubated; purchased BPS Biosciences; settings: 200 μM TCEP
# T1 sequence (Q9UBN7 1-1215): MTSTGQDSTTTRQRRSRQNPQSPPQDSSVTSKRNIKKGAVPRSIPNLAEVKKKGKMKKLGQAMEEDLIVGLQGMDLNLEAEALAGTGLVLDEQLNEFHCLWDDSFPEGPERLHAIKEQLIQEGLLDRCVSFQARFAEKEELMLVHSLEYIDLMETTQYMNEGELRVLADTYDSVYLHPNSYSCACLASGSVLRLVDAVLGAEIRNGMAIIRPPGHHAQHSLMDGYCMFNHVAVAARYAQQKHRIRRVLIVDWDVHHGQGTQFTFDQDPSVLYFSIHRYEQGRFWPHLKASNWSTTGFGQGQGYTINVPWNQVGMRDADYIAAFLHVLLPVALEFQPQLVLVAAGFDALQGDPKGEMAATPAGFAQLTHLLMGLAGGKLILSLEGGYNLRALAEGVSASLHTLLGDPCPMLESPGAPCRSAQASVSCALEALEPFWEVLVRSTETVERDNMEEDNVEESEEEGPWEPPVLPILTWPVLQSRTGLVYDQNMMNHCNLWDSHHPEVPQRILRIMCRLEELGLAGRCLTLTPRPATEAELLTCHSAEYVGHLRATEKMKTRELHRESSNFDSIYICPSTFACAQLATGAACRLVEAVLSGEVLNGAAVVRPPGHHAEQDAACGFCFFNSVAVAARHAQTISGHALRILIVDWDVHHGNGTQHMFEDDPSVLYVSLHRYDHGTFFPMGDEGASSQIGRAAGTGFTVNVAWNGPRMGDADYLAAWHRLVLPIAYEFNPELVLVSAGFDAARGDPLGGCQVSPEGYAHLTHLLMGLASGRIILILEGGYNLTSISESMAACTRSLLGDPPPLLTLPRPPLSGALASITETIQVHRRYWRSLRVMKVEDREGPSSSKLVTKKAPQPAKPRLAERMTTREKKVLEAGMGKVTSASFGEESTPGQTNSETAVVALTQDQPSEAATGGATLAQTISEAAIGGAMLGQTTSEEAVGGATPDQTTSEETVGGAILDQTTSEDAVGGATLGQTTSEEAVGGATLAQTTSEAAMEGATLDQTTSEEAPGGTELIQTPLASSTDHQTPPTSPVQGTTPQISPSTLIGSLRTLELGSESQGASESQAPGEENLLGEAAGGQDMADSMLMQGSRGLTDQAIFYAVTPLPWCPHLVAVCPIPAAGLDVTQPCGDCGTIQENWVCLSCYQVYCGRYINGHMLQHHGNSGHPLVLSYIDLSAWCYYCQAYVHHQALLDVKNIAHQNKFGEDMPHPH
# HDAC8 = target: T2, HDAC8 (Homo sapiens, UniProt Q9BY41); test: HDAC biochemical assay of P5-P12 (Table P1); set-up: The recombinant, full-length HDAC protein (BPS Biosciences) was incubated; purchased BPS Biosciences; settings: Table P1
# T2 sequence (Q9BY41 1-377): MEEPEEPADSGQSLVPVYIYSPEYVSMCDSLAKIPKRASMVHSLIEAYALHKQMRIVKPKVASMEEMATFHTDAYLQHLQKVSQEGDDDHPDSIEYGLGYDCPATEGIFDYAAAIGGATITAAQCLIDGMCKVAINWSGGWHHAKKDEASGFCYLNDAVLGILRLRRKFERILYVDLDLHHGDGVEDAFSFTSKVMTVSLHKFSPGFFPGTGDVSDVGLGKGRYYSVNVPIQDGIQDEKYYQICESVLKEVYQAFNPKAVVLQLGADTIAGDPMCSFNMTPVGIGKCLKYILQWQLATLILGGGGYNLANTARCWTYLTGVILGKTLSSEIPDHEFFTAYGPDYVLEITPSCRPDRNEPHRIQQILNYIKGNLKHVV
# HDAC3 = target: T3, HDAC3 (Homo sapiens, UniProt O15379); test: HDAC biochemical assay of P5-P12 (Table P1); settings: Table P1
# T3 construct: The recombinant, full-length HDAC protein (BPS Biosciences) was incubated; purchased BPS Biosciences
# HDAC1 = HDAC1 (Homo sapiens, UniProt Q13547); test: HDAC biochemical assay of P5-P12 (Table P1); set-up: The recombinant, full-length HDAC protein (BPS Biosciences) was incubated; purchased BPS Biosciences; settings: Table P1
# [2] = test system: 797 NUT midline carcinoma cell line; test: 797 cell viability (ATPLite); type: cell-based; settings: Table P2; 48 hours incubation
# Experimental: (§1) Addition of compound was performed with a JANUS Workstation (PerkinElmer Life and Analytical Sciences) using a 384-well pinhead tool that is calibrated to deliver 100 nL drug/well. After 48 hours of incubation with compound, cells were analyzed for cell viability using the ATPLite (Perkin Elmer) luminescent assay kit per the manufacturer's instructions. […] Replicate measurements were analyzed with respect to dose and estimates of IC50 were calculated by logistic regression (GraphPad Prism).
# [3] = test system: 10326 NUT midline carcinoma cell line; test: 10326 cell viability (ATPLite); type: cell-based; settings: Table P2; 48 hours incubation
# Experimental: as §1
# CNS cancer cell lines [4] = test: cells; settings: read-out: Average Concentration (M), LC50, CNS
# Excerpt: (§2) All compounds submitted for screening were initially tested at a single high dose (10^-5 M) against the fill NCI 60 cell panel. Only compounds which satisfied pre-determined threshold inhibition criteria in a minimum number of cell lines progressed to a second round of testing utilizing a more comprehensive 5-dose inhibition assay. The threshold inhibition criteria for progression to the 5-dose assays were selected to efficiently capture compounds with anti-proliferative activity based on historical DTP screening data.
# (§3) Concentrations for G150, IC50, TGI, and LC50 were calculated for all cell lines tested, and heat plots were prepared.
# melanoma cell lines [5] = settings: for Percent of Cell Lines Impacted (%), LC50, Melanoma: five-dose
# Excerpt: as §2, §3
# renal cancer cell lines = settings: for Percent of Cell Lines Impacted (%), LC50, Renal: five-dose
# Excerpt: as §2, §3
# NCI-60 cancer cell lines [6] = settings: five-dose; for Percent of Cell Lines Impacted (%), GI50: 50% Growth Inhibition; for Percent of Cell Lines Impacted (%), LC50: 50% Lethal Concentration reached; for Percent of Cell Lines Impacted (%), TGI / Total Impacted Cell Lines (n), TGI: Total Growth Inhibition; for Average Concentration (M), TGI: average over impacted cell lines
# Excerpt: as §2, §3
# NCI-60 cancer cell lines [7] = test: cells
# Excerpt: as §2, §3
# melanoma cell lines [8] = test: cells; settings: read-out: Average Concentration (M), LC50, Melanoma
# Excerpt: as §2, §3
# colon cancer cell lines [9] = test: cells; settings: read-out: Average Concentration (M), LC50, Colon
# Excerpt: as §2, §3
# colon cancer cell lines [10] = settings: for Percent of Cell Lines Impacted (%), LC50, Colon: five-dose
# Excerpt: as §2, §3
# CNS cancer cell lines [11] = settings: for Percent of Cell Lines Impacted (%), LC50, CNS: five-dose
# Excerpt: as §2, §3
# [12] = test system: ovarian cancer cell lines
# Excerpt: as §2, §3
# [13] = read-out: Average Concentration (M), GI50
# T3 sequence (O15379 whole entry): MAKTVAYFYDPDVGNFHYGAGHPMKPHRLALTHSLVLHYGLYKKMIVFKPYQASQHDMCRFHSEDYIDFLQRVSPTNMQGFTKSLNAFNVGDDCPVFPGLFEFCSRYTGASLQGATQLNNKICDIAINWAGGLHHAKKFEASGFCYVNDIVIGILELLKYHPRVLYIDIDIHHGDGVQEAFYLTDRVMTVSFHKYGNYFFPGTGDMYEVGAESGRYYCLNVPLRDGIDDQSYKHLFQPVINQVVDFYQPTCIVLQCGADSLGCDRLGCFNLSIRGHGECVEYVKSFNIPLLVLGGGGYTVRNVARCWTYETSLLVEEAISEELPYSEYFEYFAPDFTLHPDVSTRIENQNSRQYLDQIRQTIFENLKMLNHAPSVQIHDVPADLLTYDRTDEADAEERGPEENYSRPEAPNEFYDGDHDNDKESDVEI
# T3 sequence (Q9Y618 395-489 partner limits assumed): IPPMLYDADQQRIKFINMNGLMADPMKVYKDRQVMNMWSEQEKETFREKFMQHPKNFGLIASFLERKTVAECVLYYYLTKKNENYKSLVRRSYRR
# Sequence of HDAC2 (Q92769 whole entry): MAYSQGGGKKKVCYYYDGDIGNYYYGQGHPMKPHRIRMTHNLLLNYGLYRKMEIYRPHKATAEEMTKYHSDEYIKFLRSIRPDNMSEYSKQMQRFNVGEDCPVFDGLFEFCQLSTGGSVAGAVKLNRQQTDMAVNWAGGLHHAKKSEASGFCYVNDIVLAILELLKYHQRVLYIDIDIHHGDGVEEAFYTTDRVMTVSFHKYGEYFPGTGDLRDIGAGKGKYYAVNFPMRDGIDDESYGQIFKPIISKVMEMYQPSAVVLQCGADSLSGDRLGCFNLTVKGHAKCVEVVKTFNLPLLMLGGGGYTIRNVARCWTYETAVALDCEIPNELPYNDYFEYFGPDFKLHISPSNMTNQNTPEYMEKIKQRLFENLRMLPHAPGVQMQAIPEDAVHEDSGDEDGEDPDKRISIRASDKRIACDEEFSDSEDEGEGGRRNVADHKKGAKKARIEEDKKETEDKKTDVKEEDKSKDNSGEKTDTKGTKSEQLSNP
# Sequence of HDAC1 (Q13547 whole entry): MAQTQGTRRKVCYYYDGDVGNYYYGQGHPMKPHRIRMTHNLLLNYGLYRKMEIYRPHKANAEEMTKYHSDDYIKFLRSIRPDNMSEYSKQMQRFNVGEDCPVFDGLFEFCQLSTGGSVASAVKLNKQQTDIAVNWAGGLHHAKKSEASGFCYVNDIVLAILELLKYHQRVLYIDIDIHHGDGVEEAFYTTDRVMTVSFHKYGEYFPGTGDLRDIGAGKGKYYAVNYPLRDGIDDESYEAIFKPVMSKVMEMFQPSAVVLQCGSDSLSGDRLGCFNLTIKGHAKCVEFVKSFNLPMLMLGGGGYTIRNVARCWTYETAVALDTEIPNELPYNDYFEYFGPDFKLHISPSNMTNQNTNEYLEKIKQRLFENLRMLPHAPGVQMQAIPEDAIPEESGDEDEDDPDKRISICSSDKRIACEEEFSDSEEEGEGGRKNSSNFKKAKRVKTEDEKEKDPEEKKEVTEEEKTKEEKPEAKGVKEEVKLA
structure (smiles),measurement,setting,value
COC(=O)C[C@@H](/C=C/CCSC(c1ccccc1)(c1ccccc1)c1ccccc1)NC(=O)[C@@H](NC(=O)[C@]1(C)CSC(c2cccc(CNC(=O)OC(C)(C)C)n2)=N1)C(C)C [Trityl Protected Peptide Isostere Pyridyl “IN” Macrocycle],"ring closure, isolated yield",[1],33%
"CC(C)[C@H]1NC(=O)[C@@]2(C)CSC(=N2)c2csc(n2)CNC(=O)C[C@H](/C=C/CCS)OC1=O [Enantiomer (2), (−)-Largazole Thiol]",decrease in potency versus the natural product,human HDACs,three orders of magnitude
"CC(C)[C@@H]1NC(=O)[C@]2(C)CSC(=N2)c2ccnc(c2)CNC(=O)C[C@@H](/C=C/CCS)NC1=O [Compound P12, Peptide Isostere Pyridyl “OUT” Thiol]",IC50 range in words for HDACs 1-3,HDACs 1-3,double-digit nM range
same,IC50,HDAC2,20.8 nM
same,IC50,HDAC6,2850 nM
same,IC50,HDAC8,1490 nM
same,IC50,HDAC3,14.6 nM
same,IC50,HDAC1,13.2 nM
"CC(C)[C@@H]1NC(=O)[C@]2(C)CSC(=N2)c2ccnc(c2)CNC(=O)C[C@@H](/C=C/CCS)OC1=O [Compound P8, Depsipeptide Pyridyl “OUT” Thiol]",IC50 range in words for HDACs 1-3,HDACs 1-3,single digit nM range
same,IC50,[2],90 nM
same,IC50,HDAC2,4.42 nM
same,IC50,[3],120 nM
same,IC50,HDAC6,35.2 nM
same,IC50,HDAC8,102 nM
same,IC50,HDAC3,2.31 nM
same,IC50,HDAC1,2.2 nM
"CC(C)[C@@H]1NC(=O)[C@]2(C)CSC(=N2)c2cccc(n2)CNC(=O)C[C@@H](/C=C/CCS)OC1=O [Compound P6, Depsipeptide Pyridyl “IN” Thiol]",IC50 range in words for HDACs 1-3,HDACs 1-3,single digit nM range
same,IC50,[2],220 nM
same,IC50,[3],290 nM
same,IC50,HDAC6,48.5 nM
same,IC50,HDAC8,341 nM
same,IC50,HDAC3,3.07 nM
CCCCCCCC(=O)SCC/C=C/[C@@H]1CC(=O)NCc2cc(ccn2)C2=N[C@@](C)(CS2)C(=O)N[C@@H](C(C)C)C(=O)O1 [compound of formula A],CC50,CNS cancer cell lines [4],1.38e-05 M
same,"Total Impacted Cell Lines (n), LC50, Melanoma",melanoma cell lines [5],3
same,"Percent of Cell Lines Impacted (%), LC50, Melanoma",melanoma cell lines [5],38%
same,"Total Impacted Cell Lines (n), LC50, Renal",renal cancer cell lines,2
same,"Percent of Cell Lines Impacted (%), LC50, Renal",renal cancer cell lines,25%
same,"Percent of Cell Lines Impacted (%), GI50",NCI-60 cancer cell lines [6],100%
same,"Percent of Cell Lines Impacted (%), LC50",NCI-60 cancer cell lines [6],16%
same,"Percent of Cell Lines Impacted (%), TGI",NCI-60 cancer cell lines [6],56%
same,"Total Impacted Cell Lines (n), TGI",NCI-60 cancer cell lines [6],32
same,"Average Concentration (M), TGI",NCI-60 cancer cell lines [6],8.49e-07 M
same,GI50,NCI-60 cancer cell lines [7]; [13],3.29e-08 M
same,GI50,"NCI-60 cancer cell lines [7]; read-out: GI50 concentrations (M), order of magnitude",1e-08 M
same,CC50,melanoma cell lines [8],2.02e-07 M
same,CC50,colon cancer cell lines [9],1.48e-06 M
same,"Total Impacted Cell Lines (n), LC50, Colon",colon cancer cell lines [10],3
same,"Percent of Cell Lines Impacted (%), LC50, Colon",colon cancer cell lines [10],43%
same,"Total Impacted Cell Lines (n), LC50, CNS",CNS cancer cell lines [11],1
same,"Percent of Cell Lines Impacted (%), LC50, CNS",CNS cancer cell lines [11],20%
CCCCCCCC(=O)SCC/C=C/[C@@H]1CC(=O)NCc2nc(cs2)C2=N[C@@](C)(CS2)C(=O)N[C@@H](C(C)C)C(=O)N1 [compound of formula aa],CC50,CNS cancer cell lines [4],7.17e-06 M
same,"Total Impacted Cell Lines (n), LC50, Melanoma",melanoma cell lines [5],2
same,"Percent of Cell Lines Impacted (%), LC50, Melanoma",melanoma cell lines [5],25%
same,"Total Impacted Cell Lines (n), LC50, Renal",renal cancer cell lines,2
same,"Percent of Cell Lines Impacted (%), LC50, Renal",renal cancer cell lines,25%
same,"Percent of Cell Lines Impacted (%), GI50",NCI-60 cancer cell lines [6],100%
same,"Percent of Cell Lines Impacted (%), LC50",NCI-60 cancer cell lines [6],17%
same,"Percent of Cell Lines Impacted (%), TGI",NCI-60 cancer cell lines [6],64%
same,"Total Impacted Cell Lines (n), TGI",NCI-60 cancer cell lines [6],37
same,"Average Concentration (M), TGI",NCI-60 cancer cell lines [6],1.31e-05 M
same,GI50,NCI-60 cancer cell lines [7]; [13],6.56e-07 M
same,CC50,melanoma cell lines [8],6.52e-06 M
same,CC50,colon cancer cell lines [9],9.45e-06 M
same,"Total Impacted Cell Lines (n), LC50, Colon",colon cancer cell lines [10],3
same,"Percent of Cell Lines Impacted (%), LC50, Colon",colon cancer cell lines [10],43%
same,"Total Impacted Cell Lines (n), LC50, CNS",CNS cancer cell lines [11],2
same,"Percent of Cell Lines Impacted (%), LC50, CNS",CNS cancer cell lines [11],33%
same,"Total Impacted Cell Lines (n), LC50, Ovarian",[12],1
same,"Percent of Cell Lines Impacted (%), LC50, Ovarian",[12]; five-dose,14%
CC(C)[C@@H]1NC(=O)[C@]2(C)CSC(=N2)c2csc(n2)CNC(=O)C[C@@H](/C=C/CCS)NC1=O [Largazole peptide isostere thiol],IC50,[2],1740 nM
same,IC50,[3],11900 nM
same,IC50,HDAC8,255 nM
COC(=O)C[C@@H](/C=C/CCSC(c1ccccc1)(c1ccccc1)c1ccccc1)NC(=O)[C@@H](NC(=O)[C@]1(C)CSC(c2ccnc(CNC(=O)OC(C)(C)C)c2)=N1)C(C)C [Trityl Protected Peptide Isostere Pyridyl “OUT” Macrocycle],"ring closure, isolated yield","[1]; HATU/HOBt/DIEA, MeCN, 0.97 mM, […]",32%
